Like-named read-outs stand apart in the source and are kept apart here.
Assays:
[1] = molecular target: recombinant rat homomeric GluK1 (Rattus norvegicus, UniProt P22756); experiment: Binding affinity at cloned homomeric GluK1 expressed in sf9 cells, [3H]-NF608
[2] = molecular target: native KA receptors; experiment: Binding affinity at native KA receptors, [3H]-KA, rat cortical synaptosomes; conditions: native iGluRs; for IC50 KA: mean of at least three experiments
[3] = molecular target: recombinant rat homomeric GluK3 (Rattus norvegicus, UniProt P42264); experiment: Binding affinity at cloned homomeric GluK3 expressed in sf9 cells, [3H]-KA; conditions: for GluK1/K3 (GluK1/GluK3 Ki selectivity ratio): ratio of Ki values at cloned homomeric receptors
recombinant rat homomeric GluK3, sequence (P42264 32-919): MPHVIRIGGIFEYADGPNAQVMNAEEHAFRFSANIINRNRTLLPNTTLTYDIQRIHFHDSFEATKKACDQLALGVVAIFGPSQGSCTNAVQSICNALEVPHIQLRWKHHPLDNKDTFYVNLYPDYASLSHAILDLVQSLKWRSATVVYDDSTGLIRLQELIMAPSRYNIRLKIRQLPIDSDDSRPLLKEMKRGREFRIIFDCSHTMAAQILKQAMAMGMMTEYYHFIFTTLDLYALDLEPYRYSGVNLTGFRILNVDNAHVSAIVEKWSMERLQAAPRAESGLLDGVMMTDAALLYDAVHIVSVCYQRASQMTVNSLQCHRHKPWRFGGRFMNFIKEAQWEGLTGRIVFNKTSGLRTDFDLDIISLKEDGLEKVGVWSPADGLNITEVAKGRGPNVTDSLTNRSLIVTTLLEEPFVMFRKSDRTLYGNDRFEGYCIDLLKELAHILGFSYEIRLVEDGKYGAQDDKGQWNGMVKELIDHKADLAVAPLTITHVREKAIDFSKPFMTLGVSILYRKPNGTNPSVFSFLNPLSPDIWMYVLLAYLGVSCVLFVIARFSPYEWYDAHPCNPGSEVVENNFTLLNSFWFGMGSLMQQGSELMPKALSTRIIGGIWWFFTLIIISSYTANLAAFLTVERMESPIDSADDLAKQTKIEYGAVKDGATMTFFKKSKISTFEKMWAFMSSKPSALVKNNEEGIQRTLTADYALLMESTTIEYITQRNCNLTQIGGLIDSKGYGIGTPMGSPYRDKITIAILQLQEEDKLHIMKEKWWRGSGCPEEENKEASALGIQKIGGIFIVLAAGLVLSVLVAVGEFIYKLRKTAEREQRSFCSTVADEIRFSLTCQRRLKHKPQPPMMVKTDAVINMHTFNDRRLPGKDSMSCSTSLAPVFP

[4] = molecular target: human EAAT2 (Homo sapiens, UniProt P43004); experiment: [3H]-D-Asp uptake assay, EAAT2 stably expressed in HEK293 cells; assay type: cell-based
human EAAT2, sequence (P43004 whole entry): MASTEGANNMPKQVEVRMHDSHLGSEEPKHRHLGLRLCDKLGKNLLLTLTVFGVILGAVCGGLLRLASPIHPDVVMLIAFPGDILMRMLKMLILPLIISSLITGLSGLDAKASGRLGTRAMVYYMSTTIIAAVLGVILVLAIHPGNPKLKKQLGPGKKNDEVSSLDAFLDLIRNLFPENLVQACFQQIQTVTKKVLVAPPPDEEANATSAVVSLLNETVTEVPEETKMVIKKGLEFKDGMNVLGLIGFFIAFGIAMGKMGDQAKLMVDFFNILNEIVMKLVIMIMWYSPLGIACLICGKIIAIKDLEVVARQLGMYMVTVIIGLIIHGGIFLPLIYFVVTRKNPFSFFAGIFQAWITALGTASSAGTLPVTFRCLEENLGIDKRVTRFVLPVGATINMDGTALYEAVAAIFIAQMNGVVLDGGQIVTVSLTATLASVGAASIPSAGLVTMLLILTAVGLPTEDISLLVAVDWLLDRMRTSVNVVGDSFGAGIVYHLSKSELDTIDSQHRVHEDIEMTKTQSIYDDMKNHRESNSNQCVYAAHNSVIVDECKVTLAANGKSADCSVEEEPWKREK

[5] = molecular target: human EAAT1 (Homo sapiens, UniProt P43003); experiment: [3H]-D-Asp uptake assay, EAAT1 stably expressed in HEK293 cells; assay type: cell-based
human EAAT1, sequence (P43003 whole entry): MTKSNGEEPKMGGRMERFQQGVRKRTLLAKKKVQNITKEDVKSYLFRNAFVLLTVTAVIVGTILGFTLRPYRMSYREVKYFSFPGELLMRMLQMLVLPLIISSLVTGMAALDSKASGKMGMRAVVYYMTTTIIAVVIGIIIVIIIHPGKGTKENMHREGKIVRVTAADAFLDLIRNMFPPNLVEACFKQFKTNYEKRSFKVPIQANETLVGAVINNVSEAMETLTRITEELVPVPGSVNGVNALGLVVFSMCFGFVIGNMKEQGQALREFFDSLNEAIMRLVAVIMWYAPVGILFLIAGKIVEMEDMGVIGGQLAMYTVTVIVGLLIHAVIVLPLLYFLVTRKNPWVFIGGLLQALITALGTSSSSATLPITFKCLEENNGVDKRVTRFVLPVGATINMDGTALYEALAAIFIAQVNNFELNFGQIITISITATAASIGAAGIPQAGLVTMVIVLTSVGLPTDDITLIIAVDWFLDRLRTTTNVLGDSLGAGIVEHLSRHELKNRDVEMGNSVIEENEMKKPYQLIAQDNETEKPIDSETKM

[6] = molecular target: T1, human EAAT3 (Homo sapiens, UniProt P43005); experiment: [3H]-D-Asp uptake assay, EAAT3 stably expressed in HEK293 cells; assay type: cell-based
T1 sequence (P43005 1-524): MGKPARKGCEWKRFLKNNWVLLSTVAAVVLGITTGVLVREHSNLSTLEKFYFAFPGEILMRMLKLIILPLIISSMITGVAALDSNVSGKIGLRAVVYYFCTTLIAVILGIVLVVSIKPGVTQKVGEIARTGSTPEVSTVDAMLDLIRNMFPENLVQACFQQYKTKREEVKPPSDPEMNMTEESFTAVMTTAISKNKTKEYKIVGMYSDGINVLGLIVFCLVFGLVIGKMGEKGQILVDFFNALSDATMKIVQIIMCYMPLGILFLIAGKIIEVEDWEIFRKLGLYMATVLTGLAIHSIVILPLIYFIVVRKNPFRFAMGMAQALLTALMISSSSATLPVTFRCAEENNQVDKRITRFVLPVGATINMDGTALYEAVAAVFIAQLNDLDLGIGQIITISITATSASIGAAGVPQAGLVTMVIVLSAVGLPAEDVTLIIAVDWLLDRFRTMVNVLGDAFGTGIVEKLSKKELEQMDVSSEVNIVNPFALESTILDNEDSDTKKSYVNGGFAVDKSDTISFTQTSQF

[7] = molecular target: recombinant rat homomeric GluK2 (Rattus norvegicus, UniProt P42260); experiment: Binding affinity at cloned homomeric GluK2 expressed in sf9 cells, [3H]-KA
recombinant rat homomeric GluK2, sequence (P42260 32-908): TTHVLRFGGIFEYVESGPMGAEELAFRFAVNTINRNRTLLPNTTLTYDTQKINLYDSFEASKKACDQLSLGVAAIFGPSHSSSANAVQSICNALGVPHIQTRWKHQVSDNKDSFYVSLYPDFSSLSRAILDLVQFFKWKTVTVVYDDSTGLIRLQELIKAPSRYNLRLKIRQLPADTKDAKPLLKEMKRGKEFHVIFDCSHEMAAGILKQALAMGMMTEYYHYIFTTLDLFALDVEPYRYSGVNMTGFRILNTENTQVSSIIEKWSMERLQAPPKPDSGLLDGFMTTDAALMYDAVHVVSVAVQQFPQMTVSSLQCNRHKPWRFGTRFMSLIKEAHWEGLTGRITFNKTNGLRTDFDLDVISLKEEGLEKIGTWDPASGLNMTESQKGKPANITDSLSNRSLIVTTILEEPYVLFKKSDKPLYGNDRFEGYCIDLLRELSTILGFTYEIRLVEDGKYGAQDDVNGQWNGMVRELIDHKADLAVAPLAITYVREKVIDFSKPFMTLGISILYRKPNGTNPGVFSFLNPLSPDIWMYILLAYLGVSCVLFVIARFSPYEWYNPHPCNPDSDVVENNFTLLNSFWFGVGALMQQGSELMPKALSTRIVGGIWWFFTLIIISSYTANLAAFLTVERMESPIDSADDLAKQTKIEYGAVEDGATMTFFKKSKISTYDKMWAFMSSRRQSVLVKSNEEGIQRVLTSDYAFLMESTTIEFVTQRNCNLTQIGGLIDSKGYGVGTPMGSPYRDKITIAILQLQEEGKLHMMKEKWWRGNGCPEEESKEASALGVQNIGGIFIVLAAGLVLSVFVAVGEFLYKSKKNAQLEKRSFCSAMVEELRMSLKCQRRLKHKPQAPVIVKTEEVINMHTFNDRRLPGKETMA

[8] = molecular target: native AMPA receptors; experiment: Binding affinity at native AMPA receptors, [3H]-AMPA, rat cortical synaptosomes; conditions: native iGluRs
[9] = molecular target: native NMDA receptors; assay type: binding; conditions: native iGluRs, rat synaptosomes
[10] = Ki GluK3, cloned homomeric receptor, mean ± SEM, at least three experiments
[11] = IC50 EAAT1, HEK293 cells, [3H]-D-Asp uptake

recombinant rat homomeric GluK1, sequence (P22756 31-949): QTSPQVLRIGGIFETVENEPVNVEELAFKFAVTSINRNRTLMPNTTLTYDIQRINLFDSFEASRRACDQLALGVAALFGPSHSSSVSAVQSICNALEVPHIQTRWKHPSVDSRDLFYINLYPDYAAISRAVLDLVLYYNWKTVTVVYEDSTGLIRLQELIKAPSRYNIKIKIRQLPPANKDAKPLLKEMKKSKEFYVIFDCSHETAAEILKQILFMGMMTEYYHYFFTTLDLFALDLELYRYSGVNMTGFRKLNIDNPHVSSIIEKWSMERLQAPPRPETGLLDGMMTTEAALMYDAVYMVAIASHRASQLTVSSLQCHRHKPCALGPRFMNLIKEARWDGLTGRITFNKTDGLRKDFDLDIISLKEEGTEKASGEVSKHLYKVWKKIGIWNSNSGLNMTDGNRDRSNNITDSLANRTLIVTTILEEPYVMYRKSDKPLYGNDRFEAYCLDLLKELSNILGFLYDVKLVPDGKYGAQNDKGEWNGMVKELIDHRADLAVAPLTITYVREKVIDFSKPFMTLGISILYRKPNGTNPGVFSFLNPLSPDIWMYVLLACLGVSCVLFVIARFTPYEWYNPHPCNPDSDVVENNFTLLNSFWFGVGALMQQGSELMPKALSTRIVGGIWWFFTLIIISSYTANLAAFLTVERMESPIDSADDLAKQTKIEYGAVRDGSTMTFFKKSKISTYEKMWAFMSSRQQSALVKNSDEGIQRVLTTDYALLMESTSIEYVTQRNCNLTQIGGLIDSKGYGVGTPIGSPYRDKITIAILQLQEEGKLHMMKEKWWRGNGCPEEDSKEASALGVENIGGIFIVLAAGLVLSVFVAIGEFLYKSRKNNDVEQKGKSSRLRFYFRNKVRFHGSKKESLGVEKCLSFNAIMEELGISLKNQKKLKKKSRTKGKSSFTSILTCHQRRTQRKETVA

Cl.O=C(O)C(Cc1c[nH]nn1)[C@@H]1CCN[C@H]1C(=O)O (mixture of isomers) [3p, trans-3-(1-Carboxy-2-(1H-1,2,3-triazol-4-yl)ethyl)pyrrolidine-2-carboxylic Acid Hydrochloride]
Ki [1]: 14 ± 2 µM | pIC50 KA (mean ± SEM, in brackets) [2]: 4.23 ± 0.03 | IC50 KA [2]: 59 µM | Ki [3, 10]: 3.1 ± 0.14 µM | GluK1/K3 (GluK1/GluK3 Ki selectivity ratio) [3]: 5 | IC50 [4]: > 300 µM | IC50 ([5]; IC50 EAAT1): > 300 µM | IC50 [6]: > 300 µM | Ki ([7]; Ki GluK2): 55 ± 9 µM

CCCC(C(=O)O)[C@@H]1CCN[C@H]1C(=O)O.Cl (relative stereo) [3e, trans-3-(1-Carboxybutyl)pyrrolidine-2-carboxylic Acid Hydrochloride]
IC50 KA [2]: >100 µM

CC(C)C(C(=O)O)[C@@H]1CCN[C@H]1C(=O)O.Cl (relative stereo) [3f, trans-3-(1-Carboxy-2-methylpropyl)pyrrolidine-2-carboxylic Acid Hydrochloride]
Ki [1]: > 100 µM | IC50 KA [2]: >100 µM | Ki [3, 10]: > 100 µM | IC50 [4]: 15.8 µM | IC50 ([5]; IC50 EAAT1): 45 µM | IC50 ([5]; pIC50 EAAT1 (mean ± SEM, in brackets)): 45.7 µM | IC50 [6]: 35.5 µM | Ki ([7]; Ki GluK2): > 100 µM

Cl.O=C(O)C(Cc1ccccc1)[C@@H]1CCN[C@H]1C(=O)O (relative stereo) [3g, trans-3-(1-Carboxy-2-phenylethyl)pyrrolidine-2-carboxylic Acid Hydrochloride]
Ki [1]: 46 ± 2.2 µM | pIC50 KA (mean ± SEM, in brackets) [2]: 4.15 ± 0.04 | IC50 KA [2]: 71 µM | Ki [3, 10]: 5.4 ± 0.42 µM | GluK1/K3 (GluK1/GluK3 Ki selectivity ratio) [3]: 9 | IC50 [4]: 20 µM | IC50 [5, 11]: 34 µM | selectivity for EAAT1 and EAAT2 over EAAT3 ([5]; from IC50 values): 10 fold | IC50 ([5]; pIC50 EAAT1 (mean ± SEM, in brackets), HEK293 cells, [3H]-D-Asp uptake): 34.7 µM | Ki ([7]; Ki GluK2): 67 ± 4.6 µM

Cl.O=C(O)C(CCc1ccccc1)[C@@H]1CCN[C@H]1C(=O)O (relative stereo) [3h, trans-3-(1-Carboxy-3-phenylpropyl)pyrrolidine-2-carboxylic Acid Hydrochloride]
Ki [1]: > 100 µM | IC50 KA [2]: >100 µM | Ki [3, 10]: 86 ± 7.3 µM | IC50 [4]: > 300 µM | IC50 ([5]; IC50 EAAT1): > 300 µM | IC50 [6]: > 300 µM | Ki ([7]; Ki GluK2): > 100 µM

COC(C(=O)O)[C@@H]1CCN[C@H]1C(=O)O.Cl (relative stereo) [3j-d1, trans-3-(Carboxy(methoxy)methyl)pyrrolidine-2-carboxylic Acid Hydrochloride]
Ki [1]: > 100 µM | IC50 KA [2]: >100 µM | Ki [3]: 82 ± 11.2 µM | IC50 [4]: ~300 µM | IC50 [5]: > 1000 µM | IC50 [6]: > 1000 µM | Ki [7]: > 100 µM

Cl.Cl.NC(C(=O)O)[C@@H]1CCN[C@H]1C(=O)O (relative stereo) [3k, trans-3-(Amino(carboxy)methyl)pyrrolidine-2-carboxylic Acid Dihydrochloride]
Ki [1]: > 100 µM | IC50 KA [2]: >100 µM | Ki [3]: 33 ± 2.4 µM | GluK1/K3 (GluK1/GluK3 Ki selectivity ratio) [3]: >3 | IC50 [4]: > 300 µM | IC50 [5]: > 300 µM | pIC50 AMPA (mean ± SEM, in brackets) [8]: 4.51 ± 0.03 | pKi NMDA (mean ± SEM, in brackets) [9]: 5.06 ± 0.02 | IC50 [6]: > 300 µM | Ki [7]: > 100 µM

Cl.O=C(O)CC(C(=O)O)[C@@H]1CCN[C@H]1C(=O)O (relative stereo) [3l, trans-2-(2-Carboxypyrrolidin-3-yl)succinic Acid Hydrochloride]
Ki [1]: 2 ± 0.16 µM | pIC50 KA (mean ± SEM, in brackets) [2]: 4.63 ± 0.02 | IC50 KA [2]: 23 µM | Ki [3, 10]: 6.4 ± 1.2 µM | IC50 [4]: > 1000 µM | IC50 ([5]; IC50 EAAT1): > 1000 µM | pKi NMDA (mean ± SEM, in brackets) [9]: 5.58 ± 0.03 | IC50 [6]: > 1000 µM | Ki ([7]; Ki GluK2): 33 ± 1.1 µM

Cl.O=C(O)CCC(C(=O)O)[C@@H]1CCN[C@H]1C(=O)O (relative stereo) [3m, trans-2-(2-Carboxypyrrolidin-3-yl)pentanedioic Acid Hydrochloride]
Ki [1]: > 100 µM | IC50 KA [2]: >100 µM | Ki [3, 10]: > 100 µM | IC50 [4]: > 300 µM | IC50 ([5]; IC50 EAAT1): > 300 µM | pKi NMDA (mean ± SEM, in brackets) [9]: 4.28 ± 0.01 | IC50 [6]: > 300 µM | Ki ([7]; Ki GluK2): > 100 µM

O=C([O-])C(CCO)[C@@H]1CCN[C@H]1C(=O)[O-].[Na+].[Na+] (relative stereo) [3n, Disodium trans-3-(1-Carboxylato-3-hydroxypropyl)pyrrolidine-2-carboxylate]
Ki [1]: > 100 µM | Ki [3, 10]: 52 ± 3 µM | GluK1/K3 (GluK1/GluK3 Ki selectivity ratio) [3]: >2 | IC50 [4]: > 300 µM | IC50 [5, 11]: > 300 µM | pKi NMDA (mean ± SEM, in brackets) [9]: 4.23 ± 0.06 | IC50 [6]: > 300 µM | Ki ([7]; Ki GluK2, cloned homomeric receptor, mean ± SEM, at least three experiments): > 100 µM

From publication PMC6597265 (ACS chemical neuroscience, 2019)
